From the NIST ThermoML archive (doi:10.1016/j.tca.2017.05.009)
± gives the expanded uncertainty stated by the source.

Conditions: Crystal; DTA

## [Sn] [tin]
  Normal melting temperature: 231.90 ± 2 °C
